Values joined by “and” are separate entries in the source; they are usually repeats but may differ in a detail not shown here. Identical values can stand only once.
System: HepG2 cells
Assay: Uptake of compounds by HepG2 cells
Assay type: cell-based, human
Conditions: for Uptake: 100 μM compound, 1 hour at 37° C., per mg protein, iodo conjugates by ICP-MS iodide content, 14C controls by scintillation counting; for Relative uptake among the compounds of the invention tested: comparison of Table 1 values; for Effect of D-glucose on uptake: D-glucose (10 mM) present; for Effect of L-glucose on uptake: L-glucose (10 mM) present
Experimental: This example describes assays conducted to determine to what extent certain iodo-containing conjugates of the invention are taken up or transported into cancer cells. As a positive control, the uptake of ^14C-labeled-2-deoxy-D-glucose, a compound transported into human cells via glucose transporters and phosphorylated by hexokinase, and thus retained in the cell, was measured. As a negative control, the uptake of ^14C-labeled-3-O-methyl-glucose, which is transported into the cell via the glucose transporters but is not phosphorylated and so is not retained, was measured.
The control assay was conducted as follows. HepG2 cells were plated at a density of 2×10^5 cells per well into a 24 well plate, and the plates were maintained in 37° C. incubator (5% CO2) for 2 days. Prior to the uptake assay, the HepG2 cells were rinsed twice with pre-warmed (37° C.) phosphate-buffered saline (PBS) containing 1 mM CaCl2, 1 mM MgCl2 and 0.3% BSA. The rinsed HepG2 cells were then incubated with 270 μl of buffer (PBS/Ca/Mg/BSA) in the absence or presence of D-glucose (10 mM), L-glucose (10 mM), cytochalasin B (10 μM) or phloretin (0.3 mM) for 10 min at 37° C. Then, 30 μl of ^14C-2DG (final concentration: 100 μM, 0.1 μCi) were added to each well, and the cells were incubated for 1 hour at 37° C. The plate was placed on ice, and the cells were washed rapidly three times with cold PBS buffer (4° C.) containing 1 mM CaCl2 and MgCl2. The cells were then lysed with 150 μl of 1% Triton X-100, and the lysate was transferred to a scintillation vial. The well was rinsed with 200 μl ddH2O, and the rinsate was transferred to the same vial. Radioactivity was quantified using a scintillation counter. The protein concentration of each sample was determined using a BCA kit (Sigma, St Louis, Mo.). The amount of uptake of ^14C-2DG is reported below in units of nmole/mg protein/60 min.
To measure uptake of the iodo-containing compounds of the invention, HepG2 cells were plated at a density of 2×10^5 cells per well into a 24 well plate, and the plates were maintained in 37° C. incubator (5% CO2) for 2 days. Prior to the uptake assay, the HepG2 cells were rinsed twice with pre-warmed (37° C.) phosphate-buffered saline (PBS) containing 1 mM CaCl2, 1 mM MgCl2 and 0.3% BSA. The HepG2 cells were then incubated with 270 μl of buffer (PBS/Ca/Mg/BSA) in the absence or presence of D-glucose (10 mM), L-glucose (10 mM), cytochalasin B (10 μM) or phloretin (0.3 mM) for 10 min at 37° C. Then, 30 μl of each of the conjugates (final concentration: 100 μM) were added to individual test wells, and the plates were incubated for 1 hour at 37° C. The plate was placed on ice, and then, the cells were washed rapidly three times with cold PBS buffer (4° C.) containing 1 mM CaCl2 and MgCl2. The cells were lysed by the sequential addition of 150 μl of 1% Triton X-100 and 100 μl of ddH2O into each well. Lysates from six replicate wells were pooled together for each sample (volume per sample: 1.5 ml). The protein concentration of each sample was determined using a BCA kit (Sigma, St Louis, Mo.). Samples were diluted by addition of 4 ml of ddH2O (final volume per sample: 5.5 ml), and the samples treated with the iodo-containing conjugates were analyzed for iodide content by inductively coupled plasma-mass spectrometry (West Coast Analytical Service, Santa Fe Spring, Calif.). The amount of uptake of iodide-containing glucose conjugate is reported as nmole/mg protein/60 min.

Molecule	Uptake	Relative uptake among the compounds of the invention tested	Effect of D-glucose on uptake	Effect of L-glucose on uptake
O=S(=O)(N[C@H]1C(O)O[C@H](CO)[C@@H](O)[C@@H]1O)c1ccc(I)cc1 (stereo partly shown) [TP020, Pipsyl glucosamine]	0.83 nmole/mg/60 min and 0.81 nmole/mg/60 min	–	–	–
OC[C@H]1OC(O)[C@H](N(C/C=C\I)C/C=C\I)[C@@H](O)[C@@H]1O (stereo partly shown) [TP018, bis-Z-3-iodopropen-2-yl glucosamine]	2.28 nmole/mg/60 min and 2.31 nmole/mg/60 min	most taken up by the cells	–	–
O=CC[C@@H](O)[C@H](O)[C@H](O)CO [Compound 2-DG, 2-deoxy-D-glucose, reference compound]	51.8 +/− 4.3 (n = 3) nmole/mg/60 min	–	–	–
4-(iodophenyl)thiocarbamoyl glucosamine [TP022]	0.90 nmole/mg/60 min and 0.97 nmole/mg/60 min	–	–	–
O=C(COCCOCCOCCOCCOCc1ccc(I)cc1)NC1C(O)O[C@H](CO)[C@@H](O)[C@@H]1O (stereo partly shown) [TP017]	0.16 nmole/mg/60 min and 0.18 nmole/mg/60 min	–	–	–
4-iodohippuroyl glucosamine [TP011]	0.5 nmole/mg/60 min	–	blocked	not L-glucose
O=C(NCCN[C@H]1C(O)O[C@H](CO)[C@@H](O)[C@@H]1O)c1ccc(I)cc1 (stereo partly shown) [TP014]	1.2 nmole/mg/60 min	–	–	–
4-iodobenzyl glucosamine [TP012]	2.8 +/− 0.14 (n = 4) nmole/mg/60 min	most taken up by the cells	not blocked	not blocked
OC[C@H]1OC(O)[C@H](N(C/C=C/I)C/C=C/I)[C@@H](O)[C@@H]1O (stereo partly shown) [TP019, bis-E-3-iodopropen-2-yl glucosamine]	1.39 nmole/mg/60 min and 1.00 nmole/mg/60 min	–	–	–
CO[C@@H]([C@H](O)[C@H](O)CO)[C@@H](O)C=O [3-O-Methyl Glucose, 3-O-methyl-glucose, reference compound]	0.2 nmole/mg/60 min	–	–	–

— patent US7001888B2, “Compositions and methods for treating cancer” (Threshold Pharmaceuticals, Inc., priority 2002, dated 2006)
